In ChEMBL document CHEMBL3603746, “Discovery of New H2S Releasing Phosphordithioates and 2,3-Dihydro-2-phenyl-2-sulfanylenebenzo[d][1,3,2]oxazaphospholes with Improved Antiproliferative Activity” (J Med Chem, 2015):
Calls of active or inactive are those of the source. The calls are words filed in the database; no cut-off is given here.

What was measured:
[1] = Induction of H2S release in 10% PBS:MeCN solution assessed as ratio of H2S level at 37 degC to H2S level at 22 degC at 0.5 mM incubated in dark condition measured at 96 hrs by 2, 6-dansyl azide probed-based fluorescence assay; assay type: physicochemical; details: buffer, 500 µM
[2] = Toxicity in human AC10 cells assessed as inhibition of cell proliferation at 100 uM after 24 hrs by CellTiter-Glo cell viability assay relative to control; assay type: cell-based
[3] = Therapeutic index, ratio of IC50 for human WI38 cells to IC50 for human PC3 cells; details: WI38 cells and PC3 cells
[4] = Therapeutic index, ratio of IC50 for human WI38 cells to IC50 for human MBA-MD-231 cells; details: WI38 cells and MBA-MD-231 cells
MCF7 [5] = assay: Cytotoxicity against human MCF7 cells assessed as inhibition of cell proliferation after 4 days by crystal violet assay; assay type: functional, cell-based; details: MCF7, 96 h
[6] = Induction of H2S release in 10% PBS:MeCN solution at 0.5 mM incubated at 22 degC in dark condition measured at 48 hrs by 2, 6-dansyl azide probed-based fluorescence assay relative to control; assay type: physicochemical; details: buffer, 500 µM
[7] = Toxicity in transforming growth factor alpha transgenic mouse hepatocytes assessed as inhibition of cell proliferation after 24 hrs by CellTiter-Glo cell viability assay; assay type: cell-based, Hepatocyte
[8] = Induction of H2S release in 10% PBS:MeCN solution at 0.5 mM incubated at 37 degC in dark condition measured at 48 hrs by 2, 6-dansyl azide probed-based fluorescence assay relative to 6.9 uM of GYY4137; assay type: physicochemical; details: buffer, 500 µM
[9] = Induction of H2S release in 10% PBS:MeCN solution at 0.5 mM incubated at 22 degC in dark condition measured at 48 hrs by 2, 6-dansyl azide probed-based fluorescence assay relative to 12 uM of GYY4137; assay type: physicochemical; details: buffer, 500 µM
[10] = Therapeutic index, ratio of IC50 for human WI38 cells to IC50 for human SKOV3 cells; details: WI38 cells and SKOV3 cells
[11] = Induction of H2S release in 10% PBS:MeCN solution at 0.5 mM incubated at 37 degC in dark condition measured at 48 hrs by 1 mM 2, 6-dansyl azide probed-based fluorescence assay relative to control; assay type: physicochemical; details: buffer, 500 µM
[12] = Therapeutic index, ratio of IC50 for human WI38 cells to IC50 for human MCF7 cells; details: WI38 cells and MCF7 cells
[13] = Toxicity in human WI38 cells assessed as inhibition of cell proliferation after 4 days by crystal violet assay
SK-OV-3 = assay: Cytotoxicity against human SKOV3 cells assessed as inhibition of cell proliferation after 4 days by crystal violet assay; assay type: functional, cell-based; details: SK-OV-3, 96 h
[14] = Induction of H2S release in 10% PBS:MeCN solution at 5 mM incubated at 37 degC in dark condition measured at 96 hrs by 2, 6-dansyl azide probed-based fluorescence assay relative to GYY4137; assay type: physicochemical; details: buffer, 5000 µM
Salmonella typhi [15] = assay: Genotoxicity in Salmonella […] TA98 at 10 to 100 ug/plate after 48 hrs by Ames test in presence of S9 fraction; assay type: toxicity, organism-based; details: salmonella enterica subsp. enterica serovar […], s9, 48 h
MCF7 [16] = assay: Induction of H2S release in human MCF7 cells at 400 uM measured at 6 hrs by probe 21-based fluorescence assay; assay type: functional
MCF7 [17] = assay: Induction of H2S release in human MCF7 cells at 400 uM measured at 24 hrs by probe 21-based fluorescence assay; assay type: functional
MCF7 [18] = assay: Reduction of intracellular pH in human MCF7 cells at 50 uM after 48 hrs by BCECF-AM staining-based confocal microscopic analysis; assay type: functional
[19] = Induction of H2S release in 10% PBS:MeCN solution at 5 mM incubated at 37 degC in dark condition measured at 96 hrs by 1 mM 2, 6-dansyl azide probed-based fluorescence assay relative to control; details: buffer, 5000 µM
MCF7 [20] = assay: Induction of H2S release in human MCF7 cells at 200 uM measured at 6 hrs by probe 21-based fluorescence assay; assay type: functional
MCF7 [21] = assay: cells; assay type: functional, cell-based; details: Homo sapiens, MCF7, 72 h
Description: Cytotoxicity against human MCF7 cells assessed as inhibition of cell proliferation after 72 hrs by MTT assay

[22] = Toxicity in human AC10 cells assessed as inhibition of cell proliferation after 24 hrs by CellTiter-Glo cell viability assay; assay type: cell-based
Salmonella typhi [23] = assay: Genotoxicity in Salmonella […] TA100 at 10 to 100 ug/plate after 48 hrs by Ames test in presence of S9 fraction; assay type: toxicity, organism-based; details: salmonella enterica subsp. enterica serovar […], s9, 48 h
[24] = Induction of H2S release in aqueous acetonitrile solution at 400 uM measured over 4 days by probe 21-based fluorescence assay; details: buffer, 96 h
[25] = Induction of H2S release in 10% PBS:MeCN solution at 5 mM incubated at 22 degC in dark condition measured at 96 hrs by 2, 6-dansyl azide probed-based fluorescence assay relative to GYY4137; assay type: physicochemical; details: buffer, 5000 µM
[26] = Effective permeability of the compound at 500 uM after 6 hrs by PAMPA; details: PAMPA
MDA-MB-231 = assay: cells; assay type: functional, cell-based; details: Homo sapiens, MDA-MB-231, 72 h
Description: Cytotoxicity against human MDA-MB-231 cells assessed as inhibition of cell proliferation after 72 hrs by MTS assay

[27] = Induction of H2S release in aqueous acetonitrile solution at 200 uM measured over 4 days by probe 21-based fluorescence assay; details: buffer, 96 h
PC-3 = assay: cells; assay type: functional, cell-based; details: Homo sapiens, PC-3, 72 h
Description: Cytotoxicity against human PC3 cells assessed as inhibition of cell proliferation after 72 hrs by MTT assay

Salmonella typhi [28] = assay: Genotoxicity in Salmonella […] TA98 at 10 to 100 ug/plate after 48 hrs by Ames test in absence of S9 fraction; assay type: toxicity, organism-based; details: salmonella enterica subsp. enterica serovar […]
[29] = Effective permeability of the compound at 500 uM after 16 hrs by PAMPA
MCF7 [30] = assay: Induction of H2S release in human MCF7 cells at 400 uM after 5 hrs by probe 21-based confocal fluorescence microscopic analysis; assay type: functional, cell-based
Salmonella typhi [31] = assay: Genotoxicity in Salmonella […] TA100 at 10 to 100 ug/plate after 48 hrs by Ames test in absence of S9 fraction; assay type: toxicity, organism-based; details: salmonella enterica subsp. enterica serovar […]
[32] = Induction of H2S release in 10% PBS:MeCN solution assessed as ratio of H2S level at 37 degC to H2S level at 22 degC at 5 mM incubated in dark condition measured at 96 hrs by 2, 6-dansyl azide probed-based fluorescence assay; details: buffer, 5000 µM
physchem [33] = details: DMSO, pH 7.4
Description: Kinetic solubility of the compound in DMSO at pH 7.4 measured at 24 hrs by multiscreen filter paper-based UV absorbance analysis

MCF7 [34] = assay: Induction of H2S release in human MCF7 cells at 200 uM measured at 24 hrs by probe 21-based fluorescence assay; assay type: functional
physchem [35] = details: DMSO, pH 7.4; remark: listed apart in the source
Description: Kinetic solubility of the compound in DMSO at pH 7.4 measured at 3 hrs by multiscreen filter paper-based UV absorbance analysis

[36] = Induction of H2S release in 10% PBS:MeCN solution at 5 mM incubated at 22 degC in dark condition measured at 96 hrs by 2, 6-dansyl azide probed-based fluorescence assay relative to control; details: buffer, 5000 µM
[37] = Induction of H2S release in 10% PBS:MeCN solution at 1 mM incubated at 22 degC in dark condition measured at 72 hrs by 2, 6-dansyl azide probed-based fluorescence assay; assay type: physicochemical; details: buffer, 1000 µM
MCF7 [38] = assay: Antitumor activity against human MCF7 tumor spheroids assessed as tumor growth inhibition at 800 uM after 14 days by inverted microscopic analysis relative to control; assay type: functional; details: MCF7, 336 h, read-out: TGI
[39] = Induction of H2S release in 10% PBS:MeCN solution at 100 uM incubated at 37 degC in dark condition measured at 72 hrs by 2, 6-dansyl azide probed-based fluorescence assay; assay type: physicochemical; details: buffer
MCF7 [40] = assay: Antitumor activity against human MCF7 tumor spheroids assessed as tumor growth inhibition at 100 uM after 14 days by inverted microscopic analysis relative to control; assay type: functional; details: MCF7, 336 h, read-out: TGI
MCF7 [41] = assay: Antitumor activity against human MCF7 tumor spheroids assessed as tumor growth inhibition at 200 uM after 14 days by inverted microscopic analysis relative to control; assay type: functional; details: MCF7, 336 h, read-out: TGI
MCF7 [42] = assay: Antitumor activity against human MCF7 tumor spheroids assessed as tumor growth inhibition at 400 uM after 14 days by inverted microscopic analysis relative to control; assay type: functional; details: MCF7, 336 h, read-out: TGI
[43] = Induction of H2S release in 10% PBS:MeCN solution at 5 mM incubated at 37 degC in dark condition measured at 96 hrs by 0.2 mM 2, 6-dansyl azide probed-based fluorescence assay relative to control; assay type: physicochemical; details: buffer, 5000 µM

Compound | inhibition at 24 h, 100 µM [2] [%] | selectivity ratio [3] | selectivity ratio [4] | IC50 (MCF7 [5]) [µM] | IC50 at 24 h [7] [µM] | selectivity ratio [10] | selectivity ratio [12] | IC50 at 4 days [13] [µM] | IC50 (SK-OV-3) [µM] | fold change (FC) [14] | IC50 (MCF7 [21]) [µM] | IC50 at 24 h [22] [µM] | fold change (FC) [25] | Papp at 6 h, 500 µM [26] [×10⁻⁶ cm/s] | IC50 (MDA-MB-231) [µM] | IC50 (PC-3) [µM] | Papp at 16 h, 500 µM [29] [×10⁻⁶ cm/s] | Ratio [32] | solubility kinetic at 24 h (physchem [33]) [µg/mL] | solubility kinetic at 3 h (physchem [35]) [µg/mL] | other results
C1CSCCN1.S=P(S)(N1CCSCC1)N1CCSCC1 | 35.6 | 1.5 | 1.5 | 20.4 | 120 | 1.5 | 1.5 | 30.4 | 15.8 |  |  |  |  |  |  |  |  |  |  |  | Ratio [1]: 1.3; %max [6]: 48.5%; fold change (FC) [8]: 90.7; fold change (FC) [9]: 40; %max [11]: 62.6%
NCc1ccccc1.S=P(S)(NCc1ccccc1)c1ccc(Oc2ccccc2)cc1 (centres undefined) |  | 1.5 | 1.5 | 36.3 | 23.5 | 1.5 | 1.5 | 104 | 47 | 0.5 | 67.6 | 62.6 | 0.9 | 0.19 | 55.4 | 45.6 | 0.97 | 2.2 | 180 | 200 | Activity (Salmonella typhi [15]): Non-toxic; Activity (MCF7 [16]): 48.2 µM; Activity (MCF7 [17]): 74.6 µM; pH (MCF7 [18]): 6.75; %max [19]: 2.81%; Activity (MCF7 [20]): 41.5 µM; Activity (Salmonella typhi [23]): Non-toxic; Activity [24]: 17.19 µM; Activity [27]: 9.03 µM; Activity (Salmonella typhi [28]): Non-toxic; Activity (MCF7 [30]): Active; Activity (Salmonella typhi [31]): Non-toxic; Activity (MCF7 [34]): 93.4 µM; %max [36]: 1.28%
S=P1(c2ccccc2)Nc2ccccc2O1 (centres undefined) |  |  |  | 5.7 | 26.3 | 8.2 |  | > 50 | 6.12 |  |  | 98 |  |  |  |  |  |  |  |  | Activity [37]: 150 µM; inhibition of growth at 800 µM (MCF7 [38]): 91%; Activity [39]: 77.6 µM; inhibition of growth at 100 µM (MCF7 [40]): 69.7%; inhibition of growth at 200 µM (MCF7 [41]): 75.3%; inhibition of growth at 400 µM (MCF7 [42]): 83.7%
C1COCCN1.CC(C)OP(=S)(S)c1ccc(Oc2ccccc2)cc1 (centres undefined) | 28.6 | 1.4 | 1.4 | 51.4 |  | 1.4 | 1.4 | 72.8 | 50.2 | < 0.1 | 178 |  | < 0.1 | 0.0066 | 94.8 | 50.8 | 0.0051 | 2.6 | > 400 | > 400 | %max [43]: 0.15%; %max [36]: 0.06%
